PubChem BioAssay AID330 (DTP/NCI, 2004)
Where “and” joins values, the source holds several entries; their conditions need not be identical. Equal entries are not always repeated. Inconclusive results and toxic doses are left out. The calls were made as follows: active = survival T/C of 150% or more; inactive = T/C below 125% in these data.

Tested on: P388 leukemia ip, CD2F1 mice, survival T/C
Assay: NCI In Vivo Anticancer Drug Screen. Data for tumor model P388 Leukemia (intraperitoneal) in CD2F1 (CDF1) mice
Conditions: endpoint: median survival time, higher = longer survival
Method in brief: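 Mice carrying the transplanted tumor received test compound or vehicle. Survival was recorded in each group, and the value is the treated-group measurement divided by that of the vehicle-treated control group.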

[1] = dose: 50.0 mg/kg/injection, schedule: Q01DX009 (ip), vehicle: Klucel (hydroxypropylcellulose) (HPC)
[2] = dose: 60.0 mg/kg/injection, schedule: Q01DX005 (ip), vehicle: saline with Tween-80
[3] = dose: 120.0 mg/kg/injection, schedule: Q01DX005 (ip), vehicle: saline with Tween-80
[4] = dose: 200.0 mg/kg/injection, schedule: Q01DX009 (ip), vehicle: Klucel (hydroxypropylcellulose) (HPC)
[5] = dose: 50.0 mg/kg/injection, schedule: Q01DX005 (ip), vehicle: saline with Tween-80
[6] = dose: 50.0 mg/kg/injection, schedule: Q01DX009 (ip), vehicle: saline with Tween-80
[7] = dose: 100.0 mg/kg/injection, schedule: Q01DX009 (ip), vehicle: saline with Tween-80
[8] = dose: 240.0 mg/kg/injection, schedule: Q01DX005 (ip), vehicle: saline with Tween-80

Measured: T/C

C=C1CC2(C=C(C)CCC2C(C)C)OC1=O (stereo not drawn)
inactive: dose: 100.0 mg/kg/injection, schedule: Q01DX001 (ip), vehicle: saline 101 % of control | dose: 200.0 mg/kg/injection, schedule: Q01DX001 (ip), vehicle: saline 101 % of control | dose: 400.0 mg/kg/injection, schedule: Q01DX001 (ip), vehicle: saline 101 % of control

O=[N+]([O-])c1ccc(CS(=O)(=O)c2cccs2)o1
inactive: dose: 50.0 mg/kg/injection, schedule: Q01DX009 (ip), vehicle: suspension in saline 106 % of control | dose: 100.0 mg/kg/injection, schedule: Q01DX009 (ip), vehicle: suspension in saline 100 % of control

CCCCCCCCCCCCCCCCCCN(C)C
inactive: dose: 25.0 mg/kg/injection, schedule: Q01DX009 (ip), vehicle: Klucel (hydroxypropylcellulose) (HPC) 100 % of control | [1] 101 % of control

O=C(Cc1nc2ccccc2s1)Nc1ccc2ccccc2c1
inactive: [2] 107 % of control | [3] 106 % of control

CS(=O)(=O)NC(=O)CCC(=O)Nc1ccc(Cl)cc1
inactive: dose: 100.0 mg/kg/injection, schedule: Q01DX001 (ip), vehicle: saline with Tween-80 100 % of control | dose: 200.0 mg/kg/injection, schedule: Q01DX001 (ip), vehicle: saline with Tween-80 97 % of control | dose: 400.0 mg/kg/injection, schedule: Q01DX001 (ip), vehicle: saline with Tween-80 96 % of control

NC(=O)c1ccc2nccn2c1
inactive: dose: 50.0 mg/kg/injection, schedule: Q04DX003 (ip), vehicle: saline 101 % of control | dose: 100.0 mg/kg/injection, schedule: Q04DX003 (ip), vehicle: saline 115 % of control | dose: 200.0 mg/kg/injection, schedule: Q04DX003 (ip), vehicle: saline 119 % of control

CN1CCN(CC(O)Cn2c(=O)c3c(nc(N4CCN(C)CC4)n3C)n(C)c2=O)CC1 (stereo not drawn)
inactive: [1] 87 % of control | dose: 100.0 mg/kg/injection, schedule: Q01DX009 (ip), vehicle: Klucel (hydroxypropylcellulose) (HPC) 102 % of control | [4] 105 % of control

CC(=O)COc1ccccc1NC(C)=O
inactive: dose: 100.0 mg/kg/injection, schedule: Q04DX003 (ip), vehicle: saline with Tween-80 109 % of control | dose: 200.0 mg/kg/injection, schedule: Q04DX003 (ip), vehicle: saline with Tween-80 90 % of control | dose: 400.0 mg/kg/injection, schedule: Q04DX003 (ip), vehicle: saline with Tween-80 100 % of control

CS(=O)(=O)OCCCCOS(C)(=O)=O
inactive: dose: 3.75 mg/kg/injection, schedule: Q01DX009 (ip), vehicle: saline with Tween-80 90 % of control | dose: 3.75 mg/kg/injection, schedule: Q03HX008 (ip), vehicle: saline with Tween-80 104 % of control | dose: 3.75 mg/kg/injection, schedule: Q03HX016 (ip), vehicle: saline with Tween-80 100 % of control | dose: 3.75 mg/kg/injection, schedule: Q03HX024 (ip), vehicle: saline with Tween-80 100 % of control | dose: 7.5 mg/kg/injection, schedule: Q03HX008 (ip), vehicle: saline with Tween-80 109 % of control | dose: 7.5 mg/kg/injection, schedule: Q03HX016 (ip), vehicle: saline with Tween-80 100 % of control | dose: 7.5 mg/kg/injection, schedule: Q03HX024 (ip), vehicle: saline with Tween-80 100 % of control | dose: 15.0 mg/kg/injection, schedule: Q01DX009 (ip), vehicle: saline with Tween-80 90 % of control | dose: 15.0 mg/kg/injection, schedule: Q01DX009 (oral), vehicle: saline with Tween-80 104 % of control | dose: 15.0 mg/kg/injection, schedule: Q03HX008 (ip), vehicle: saline with Tween-80 109 % of control | dose: 15.0 mg/kg/injection, schedule: Q03HX016 (ip), vehicle: saline with Tween-80 109 % of control | dose: 15.0 mg/kg/injection, schedule: Q03HX024 (ip), vehicle: saline with Tween-80 113 % of control | dose: 25.0 mg/kg/injection, schedule: Q01DX005 (ip), vehicle: saline with Tween-80 108 % of control | dose: 30.0 mg/kg/injection, schedule: Q01DX001 (ip), vehicle: saline with Tween-80 110 % of control | dose: 30.0 mg/kg/injection, schedule: Q01DX009 (ip), vehicle: saline with Tween-80 100 % of control | dose: 30.0 mg/kg/injection, schedule: Q01DX009 (oral), vehicle: saline with Tween-80 104 % of control | dose: 30.0 mg/kg/injection, schedule: Q03HX008 (ip), vehicle: saline with Tween-80 109 % of control | dose: 30.0 mg/kg/injection, schedule: Q03HX016 (ip), vehicle: saline with Tween-80 100 % of control | dose: 30.0 mg/kg/injection, schedule: Q04DX003 (ip), vehicle: saline with Tween-80 90 % of control | dose: 30.0 mg/kg/injection, schedule: Q08DX002 (ip), vehicle: saline with Tween-80 105 % of control | [5] 113 % of control and 93 % of control | dose: 60.0 mg/kg/injection, schedule: Q01DX001 (ip), vehicle: saline with Tween-80 110 % of control | dose: 60.0 mg/kg/injection, schedule: Q01DX001 (oral), vehicle: saline with Tween-80 100 % of control | dose: 60.0 mg/kg/injection, schedule: Q08DX002 (ip), vehicle: saline with Tween-80 100 % of control | dose: 240.0 mg/kg/injection, schedule: Q08DX002 (ip), vehicle: saline with Tween-80 100 % of control

N#C/C(=C\c1c2ccccc2c(Cl)c2ccccc12)C(N)=S
inactive: dose: 6.25 mg/kg/injection, schedule: Q01DX009 (ip), vehicle: saline 90 % of control | dose: 12.5 mg/kg/injection, schedule: Q01DX009 (ip), vehicle: saline 88 % of control | dose: 25.0 mg/kg/injection, schedule: Q01DX009 (ip), vehicle: saline 90 % of control | dose: 50.0 mg/kg/injection, schedule: Q01DX009 (ip), vehicle: saline 92 % of control | dose: 100.0 mg/kg/injection, schedule: Q01DX009 (ip), vehicle: saline 97 % of control | dose: 200.0 mg/kg/injection, schedule: Q01DX009 (ip), vehicle: saline 103 % of control

CC(=O)OCC(O)CS(=O)c1ccc(C)cc1 (stereo not drawn)
inactive: dose: 25.0 mg/kg/injection, schedule: Q01DX009 (ip), vehicle: saline with Tween-80 100 % of control | [6] 99 % of control | [7] 98 % of control

CCOC(=O)CN1CN(CCc2ccccc2)CC(C)(C)C1OCC (stereo not drawn)
inactive: [6] 104 % of control | [7] 101 % of control | dose: 200.0 mg/kg/injection, schedule: Q01DX009 (ip), vehicle: saline with Tween-80 121 % of control | dose: 400.0 mg/kg/injection, schedule: Q01DX009 (ip), vehicle: saline with Tween-80 112 % of control

CC(NCCNC(C)c1cccnc1)c1cccnc1 (stereo not drawn)
inactive: dose: 50.0 mg/kg/injection, schedule: Q01DX005 (ip), vehicle: saline 102 % of control | dose: 100.0 mg/kg/injection, schedule: Q01DX005 (ip), vehicle: saline 110 % of control | dose: 200.0 mg/kg/injection, schedule: Q01DX005 (ip), vehicle: saline 94 % of control

Cc1noc(-c2ccc([N+](=O)[O-])o2)n1
inactive: dose: 130.0 mg/kg/injection, schedule: Q01DX009 (ip), vehicle: Klucel (hydroxypropylcellulose) (HPC) 100 % of control | [4] 104 % of control

C/C(=N\NC(=S)N1CC2CCC(CC2)C1)c1nccs1
active: [5] 154 % of control
inactive: dose: 12.5 mg/kg/injection, schedule: Q01DX005 (ip), vehicle: saline with Tween-80 124 % of control

CC1(C)CN(C(=S)N2CC(C)(C)SC2=O)C(=O)S1
inactive: [2] 108 % of control | [3] 98 % of control | [8] 104 % of control

Cc1cc(C)nc(NS(=O)(=O)c2ccc(N=c3c4ccccc4n(Cc4ccccc4)c4ccccc34)cc2)n1
inactive: [5] 98 % of control | dose: 100.0 mg/kg/injection, schedule: Q01DX005 (ip), vehicle: saline with Tween-80 88 % of control

Cc1ccc(S(=O)(=O)N(CCCc2c(Cl)nc(N)nc2-c2ccccc2)c2ccccc2)cc1
inactive: [2] 87 % of control | [3] 87 % of control | [8] 89 % of control

O=C(Nc1ccc(Cl)cc1)Nc1nnc(-c2ccccc2Br)o1
inactive: [2] 105 % of control | [3] 94 % of control | [8] 95 % of control

CC(=O)C(=N/O)/C(C)=N/NC(=O)c1ccncc1
inactive: dose: 100.0 mg/kg/injection, schedule: Q04DX002 (ip), vehicle: saline 106 % of control | dose: 200.0 mg/kg/injection, schedule: Q04DX002 (ip), vehicle: saline 103 % of control | dose: 400.0 mg/kg/injection, schedule: Q04DX002 (ip), vehicle: saline 102 % of control

C=C(C)C(=O)OC1CCCC2C(=C)C(=O)OC12 (stereo not drawn)
inactive: dose: 60.0 mg/kg/injection, schedule: Q01DX005 (ip), vehicle: Klucel (hydroxypropylcellulose) (HPC) 105 % of control | dose: 120.0 mg/kg/injection, schedule: Q01DX005 (ip), vehicle: Klucel (hydroxypropylcellulose) (HPC) 100 % of control | dose: 240.0 mg/kg/injection, schedule: Q01DX005 (ip), vehicle: Klucel (hydroxypropylcellulose) (HPC) 107 % of control
